Measurements: BigSolDB 2.1

C=CC(=O)NC(C)(C)CS(=O)(=O)O
Conditions | solubility (mole fraction)
in 1,4-dioxane, 288.15 K | 0.000105
in 1,4-dioxane, 293.15 K | 0.000168
in 1,4-dioxane, 298.15 K | 0.000274
in 1,4-dioxane, 303.15 K | 0.000425
in 1,4-dioxane, 308.15 K | 0.000657
in 1,4-dioxane, 313.15 K | 0.000978
in 1,4-dioxane, 318.15 K | 0.00139
in 1,4-dioxane, 323.15 K | 0.00195
in 1,4-dioxane, 328.15 K | 0.00268
in acetone, 283.15 K | 0.00625
in acetone, 288.15 K | 0.00695
in acetone, 293.15 K | 0.00795
in acetone, 298.15 K | 0.00921
in acetone, 303.15 K | 0.0107
in acetone, 308.15 K | 0.0126
in acetone, 313.15 K | 0.0148
in acetone, 318.15 K | 0.0173
in acetone, 323.15 K | 0.0205
in acetone, 328.15 K | 0.0244
in acetonitrile, 283.15 K | 3.11e-05
in acetonitrile, 288.15 K | 5.19e-05
in acetonitrile, 293.15 K | 9.14e-05
in acetonitrile, 298.15 K | 0.000154
in acetonitrile, 303.15 K | 0.000265
in acetonitrile, 308.15 K | 0.000436
in acetonitrile, 313.15 K | 0.000696
in acetonitrile, 318.15 K | 0.00107
in acetonitrile, 323.15 K | 0.0016
in acetonitrile, 328.15 K | 0.00237
in cyclohexane, 283.15 K | 2.64e-05
in cyclohexane, 288.15 K | 4.73e-05
in cyclohexane, 293.15 K | 7.77e-05
in cyclohexane, 298.15 K | 0.000139
in cyclohexane, 303.15 K | 0.000229
in cyclohexane, 308.15 K | 0.000359
in cyclohexane, 313.15 K | 0.000567
in cyclohexane, 318.15 K | 0.000867
in cyclohexane, 323.15 K | 0.00125
in cyclohexane, 328.15 K | 0.00179
in ethanol, 283.15 K | 0.00721
in ethanol, 288.15 K | 0.00794
in ethanol, 293.15 K | 0.00893
in ethanol, 298.15 K | 0.0102
in ethanol, 303.15 K | 0.0118
in ethanol, 308.15 K | 0.0138
in ethanol, 313.15 K | 0.0161
in ethanol, 318.15 K | 0.0189
in ethanol, 323.15 K | 0.0225
in ethanol, 328.15 K | 0.0264
in ethyl acetate, 283.15 K | 0.00106
in ethyl acetate, 288.15 K | 0.00142
in ethyl acetate, 293.15 K | 0.00198
in ethyl acetate, 298.15 K | 0.00262
in ethyl acetate, 303.15 K | 0.00338
in ethyl acetate, 308.15 K | 0.00431
in ethyl acetate, 313.15 K | 0.00543
in ethyl acetate, 318.15 K | 0.00672
in ethyl acetate, 323.15 K | 0.00829
in ethyl acetate, 328.15 K | 0.0103
in ethylene glycol, 283.15 K | 0.000463
in ethylene glycol, 288.15 K | 0.000687
in ethylene glycol, 293.15 K | 0.00105
in ethylene glycol, 298.15 K | 0.00162
in ethylene glycol, 303.15 K | 0.00237
in ethylene glycol, 308.15 K | 0.00329
in ethylene glycol, 313.15 K | 0.00444
in ethylene glycol, 318.15 K | 0.00583
in ethylene glycol, 323.15 K | 0.00757
in ethylene glycol, 328.15 K | 0.00972
in isobutanol, 283.15 K | 0.00229
in isobutanol, 288.15 K | 0.00267
in isobutanol, 293.15 K | 0.00322
in isobutanol, 298.15 K | 0.00394
in isobutanol, 303.15 K | 0.00485
in isobutanol, 308.15 K | 0.00596
in isobutanol, 313.15 K | 0.00728
in isobutanol, 318.15 K | 0.00885
in isobutanol, 323.15 K | 0.0107
in isobutanol, 328.15 K | 0.0131
in isopropanol, 283.15 K | 0.000208
in isopropanol, 288.15 K | 0.000333
in isopropanol, 293.15 K | 0.00056
in isopropanol, 298.15 K | 0.000882
in isopropanol, 303.15 K | 0.00129
in isopropanol, 308.15 K | 0.00186
in isopropanol, 313.15 K | 0.00266
in isopropanol, 318.15 K | 0.00373
in isopropanol, 323.15 K | 0.00508
in isopropanol, 328.15 K | 0.00671
in methanol, 283.15 K | 0.00916
in methanol, 288.15 K | 0.0103
in methanol, 293.15 K | 0.0117
in methanol, 298.15 K | 0.0138
in methanol, 303.15 K | 0.0163
in methanol, 308.15 K | 0.0193
in methanol, 313.15 K | 0.0227
in methanol, 318.15 K | 0.0268
in methanol, 323.15 K | 0.0322
in methanol, 328.15 K | 0.0383
in n-butanol, 283.15 K | 0.00359
in n-butanol, 288.15 K | 0.00403
in n-butanol, 293.15 K | 0.00468
in n-butanol, 298.15 K | 0.0055
in n-butanol, 303.15 K | 0.00649
in n-butanol, 308.15 K | 0.00773
in n-butanol, 313.15 K | 0.00922
in n-butanol, 318.15 K | 0.011
in n-butanol, 323.15 K | 0.0133
in n-butanol, 328.15 K | 0.0159
in n-heptanol, 283.15 K | 0.00327
in n-heptanol, 288.15 K | 0.00369
in n-heptanol, 293.15 K | 0.00426
in n-heptanol, 298.15 K | 0.00496
in n-heptanol, 303.15 K | 0.00582
in n-heptanol, 308.15 K | 0.0069
in n-heptanol, 313.15 K | 0.00824
in n-heptanol, 318.15 K | 0.00987
in n-heptanol, 323.15 K | 0.0118
in n-heptanol, 328.15 K | 0.0145
in n-propanol, 283.15 K | 0.00399
in n-propanol, 288.15 K | 0.00463
in n-propanol, 293.15 K | 0.00542
in n-propanol, 298.15 K | 0.00646
in n-propanol, 303.15 K | 0.00764
in n-propanol, 308.15 K | 0.0091
in n-propanol, 313.15 K | 0.0108
in n-propanol, 318.15 K | 0.0129
in n-propanol, 325.15 K | 0.0158
in n-propanol, 328.15 K | 0.0188
